Reference: ChEMBL document CHEMBL1201861, “Genomics of Drug Sensitity in Cancer screening data, Wellcome Trust Sanger Institute”

How the values were obtained:
Test in all cases: cells
Conditions in all cases: Homo sapiens
[1] = tested on: CP50-MEL-B; format: functional, cell-based;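 also: growth inhibition of the human cell line, measured with a cell viability read-out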
Description: SANGER: Inhibition of human CP50-MEL-B cell growth in a cell viability assay.

[2] = tested on: Ca-Ski; format: functional, cell-based;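 also: cell viability assay measuring inhibition of Ca-Ski cell growth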
Description: SANGER: Inhibition of human Ca-Ski cell growth in a cell viability assay.

[3] = tested on: Ca9-22; format: functional, cell-based;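 also: growth inhibition of Ca9-22 cells, read out with a cell viability assay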
Description: SANGER: Inhibition of human Ca9-22 cell growth in a cell viability assay.

[4] = tested on: DU-145; format: functional, cell-based
Description: SANGER: Inhibition of human DU-145 cell growth in a cell viability assay.

[5] = tested on: Detroit 562; format: functional, cell-based;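 also: growth inhibition of human Detroit 562 cells, read out by a cell viability assay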
Description: SANGER: Inhibition of human Detroit562 cell growth in a cell viability assay.

[6] = tested on: EFM-19; format: functional, cell-based;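 also: growth inhibition of human EFM-19 cells, measured in a cell viability assay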
Description: SANGER: Inhibition of human EFM-19 cell growth in a cell viability assay.

[7] = tested on: EFO-21; format: functional, cell-based;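 also: growth inhibition of EFO-21 cells measured with a viability assay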
Description: SANGER: Inhibition of human EFO-21 cell growth in a cell viability assay.

[8] = tested on: FTC-133; format: functional, cell-based
[9] = tested on: GP5d; format: functional, cell-based;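 also: growth inhibition of human GP5d cells, read out with a cell viability assay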
Description: SANGER: Inhibition of human GP5d cell growth in a cell viability assay.

[10] = tested on: HCC1395; format: functional, cell-based;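 also: growth inhibition of HCC1395 cells, read out by a cell viability assay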
Description: SANGER: Inhibition of human HCC1395 cell growth in a cell viability assay.

[11] = tested on: HCC 2998; format: functional, cell-based;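 also: growth inhibition of human HCC2998 cells, measured with a cell viability read-out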
Description: SANGER: Inhibition of human HCC2998 cell growth in a cell viability assay.

[12] = tested on: HCT-15; format: functional, cell-based;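 also: cell viability readout, IC50 reflecting suppression of HCT-15 cell growth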
Description: SANGER: Inhibition of human HCT-15 cell growth in a cell viability assay.

[13] = tested on: HEC-1; format: functional, cell-based;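 also: growth inhibition of the cell line, read out with a cell viability assay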
Description: SANGER: Inhibition of human HEC-1 cell growth in a cell viability assay.

[14] = tested on: HPAF-II; format: functional, cell-based;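 also: growth inhibition of HPAF-II cells, read out with a cell viability assay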
Description: SANGER: Inhibition of human HPAF-II cell growth in a cell viability assay.

[15] = tested on: HT-1080; format: functional, cell-based
Description: SANGER: Inhibition of human HT-1080 cell growth in a cell viability assay.

[16] = tested on: HuCCT-1; format: functional, cell-based, HuCCT1;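 also: growth inhibition of HuCCT-1 cells, read out by a cell viability assay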
Description: SANGER: Inhibition of human HuCCT1 cell growth in a cell viability assay.

[17] = tested on: IGROV-1; format: functional, cell-based;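 also: reduction of IGROV-1 cell growth, read out with a viability assay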
Description: SANGER: Inhibition of human IGROV-1 cell growth in a cell viability assay.

[18] = tested on: KP-N-YN; format: functional, cell-based;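 also: growth inhibition of KP-N-YN cells, read out with a cell viability assay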
Description: SANGER: Inhibition of human KP-N-YN cell growth in a cell viability assay.

[19] = tested on: LB996-RCC; format: functional, cell-based
Description: SANGER: Inhibition of human LB996-RCC cell growth in a cell viability assay.

[20] = tested on: LU-99A; format: functional, cell-based;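 also: growth inhibition of LU-99A cells, read out with a cell viability assay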
Description: SANGER: Inhibition of human LU-99A cell growth in a cell viability assay.

[21] = tested on: MCF7; format: functional, cell-based;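 also: growth inhibition of human MCF7 cells, read out with a cell viability assay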
Description: SANGER: Inhibition of human MCF7 cell growth in a cell viability assay.

[22] = tested on: ME-180; format: functional, cell-based;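 also: cell viability assay measuring growth inhibition of ME-180 cells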
Description: SANGER: Inhibition of human ME-180 cell growth in a cell viability assay.

[23] = tested on: MEL-HO; format: functional, cell-based
Description: SANGER: Inhibition of human MEL-HO cell growth in a cell viability assay.

[24] = tested on: NB14; format: functional, cell-based;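 also: growth inhibition of NB14 cells measured with a cell viability assay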
Description: SANGER: Inhibition of human NB14 cell growth in a cell viability assay.

[25] = tested on: NCI-H1573; format: functional, cell-based;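 also: growth inhibition of NCI-H1573 cells, read out with a cell viability assay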
Description: SANGER: Inhibition of human NCI-H1573 cell growth in a cell viability assay.

[26] = tested on: NCI-H1703; format: functional, cell-based;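 also: growth inhibition of NCI-H1703 cells, read out via a cell viability assay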
Description: SANGER: Inhibition of human NCI-H1703 cell growth in a cell viability assay.

[27] = tested on: NCI-H1792; format: functional, cell-based;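 also: growth inhibition of human NCI-H1792 cells, read out as cell viability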
Description: SANGER: Inhibition of human NCI-H1792 cell growth in a cell viability assay.

[28] = tested on: NCI-H2122; format: functional, cell-based;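 also: growth inhibition of the cells, read out with a cell viability assay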
Description: SANGER: Inhibition of human NCI-H2122 cell growth in a cell viability assay.

[29] = tested on: NCI-H2342; format: functional, cell-based;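 also: growth inhibition of the cancer cell line, determined with a cell viability assay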
Description: SANGER: Inhibition of human NCI-H2342 cell growth in a cell viability assay.

[30] = tested on: NCI-H727; format: functional, cell-based;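 also: growth inhibition of human NCI-H727 cells, read out with a cell viability assay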
Description: SANGER: Inhibition of human NCI-H727 cell growth in a cell viability assay.

[31] = tested on: OVCAR-3; format: functional, cell-based;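 also: growth inhibition of human OVCAR-3 cells, determined by a cell viability assay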
Description: SANGER: Inhibition of human OVCAR-3 cell growth in a cell viability assay.

[32] = tested on: PANC-08-13; format: functional, cell-based;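 also: cell growth inhibition, measured with a cell viability assay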
Description: SANGER: Inhibition of human PANC-08-13 cell growth in a cell viability assay.

[33] = tested on: RCM-1; format: functional, cell-based;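 also: growth inhibition of the RCM-1 line, determined with a cell viability readout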
Description: SANGER: Inhibition of human RCM-1 cell growth in a cell viability assay.

[34] = tested on: SBC-5; format: functional, cell-based;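 also: cell viability assay read-out, IC50 is the concentration that inhibits growth of the cells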
Description: SANGER: Inhibition of human SBC-5 cell growth in a cell viability assay.

[35] = tested on: SNU-423; format: functional, cell-based
Description: SANGER: Inhibition of human SNU-423 cell growth in a cell viability assay.

[36] = tested on: SW-620; format: functional, cell-based;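 also: growth inhibition of human SW-620 cells, measured by a cell viability assay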
Description: SANGER: Inhibition of human SW620 cell growth in a cell viability assay.

[37] = tested on: 8305C; format: functional, cell-based
Description: SANGER: Inhibition of human 8305C cell growth in a cell viability assay.

[38] = tested on: A253 cell line; format: functional, cell-based;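 also: growth inhibition of A253 cells, read out with a cell viability assay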
Description: SANGER: Inhibition of human A253 cell growth in a cell viability assay.

[39] = tested on: BPH-1; format: functional, cell-based;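 also: cell viability assay measuring growth inhibition of human BPH-1 cells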
Description: SANGER: Inhibition of human BPH-1 cell growth in a cell viability assay.

[40] = tested on: BT-20; format: functional, cell-based;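 also: cell viability assay measuring suppression of growth in human BT-20 cells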
Description: SANGER: Inhibition of human BT-20 cell growth in a cell viability assay.

[41] = tested on: CAL-120; format: functional, cell-based;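 also: cell growth inhibition, read out as cell viability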
Description: SANGER: Inhibition of human CAL-120 cell growth in a cell viability assay.

[42] = tested on: U-251; format: functional, cell-based;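 also: growth inhibition of human U-251 cells, read out through a cell viability assay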
Description: SANGER: Inhibition of human U251 cell growth in a cell viability assay.

[43] = tested on: YAPC; format: functional, cell-based;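 also: growth inhibition of YAPC cells, measured with a cell viability assay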
Description: SANGER: Inhibition of human YAPC cell growth in a cell viability assay.

[44] = tested on: CAPAN-1; format: functional, cell-based;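 also: growth suppression of CAPAN-1 cells, read out by a cell viability assay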
Description: SANGER: Inhibition of human CAPAN-1 cell growth in a cell viability assay.

[45] = tested on: CHL-1; format: functional, cell-based;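 also: cell growth inhibition, read out with a cell viability assay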
Description: SANGER: Inhibition of human CHL-1 cell growth in a cell viability assay.

[46] = tested on: CHP-212; format: functional, cell-based
Description: SANGER: Inhibition of human CHP-212 cell growth in a cell viability assay.

[47] = tested on: COLO-680N; format: functional, cell-based;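 also: cell viability assay used to measure inhibition of COLO-680N cell growth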
Description: SANGER: Inhibition of human COLO-680N cell growth in a cell viability assay.

Structure (SMILES): O=c1cc(N2CCOCC2)oc2c(-c3cccc4c3sc3ccccc34)cccc12
- IC50 [1]: > 2000 nM
- IC50 [2]: > 2000 nM
- IC50 [3]: > 2000 nM
- IC50 [4]: > 2000 nM
- IC50 [5]: > 2000 nM
- IC50 [6]: > 2000 nM
- IC50 [7]: > 2000 nM
- IC50 [8]: > 2000 nM
- IC50 [9]: > 2000 nM
- IC50 [10]: > 2000 nM
- IC50 [11]: > 2000 nM
- IC50 [12]: > 2000 nM
- IC50 [13]: > 2000 nM
- IC50 [14]: > 2000 nM
- IC50 [15]: > 2000 nM
- IC50 [16]: > 2000 nM
- IC50 [17]: > 2000 nM
- IC50 [18]: > 2000 nM
- IC50 [19]: > 2000 nM
- IC50 [20]: > 2000 nM
- IC50 [21]: > 2000 nM
- IC50 [22]: > 2000 nM
- IC50 [23]: > 2000 nM
- IC50 [24]: > 2000 nM
- IC50 [25]: > 2000 nM
- IC50 [26]: > 2000 nM
- IC50 [27]: > 2000 nM
- IC50 [28]: > 2000 nM
- IC50 [29]: > 2000 nM
- IC50 [30]: > 2000 nM
- IC50 [31]: > 2000 nM
- IC50 [32]: > 2000 nM
- IC50 [33]: > 2000 nM
- IC50 [34]: > 2000 nM
- IC50 [35]: > 2000 nM
- IC50 [36]: > 2000 nM
- IC50 [37]: > 2000 nM
- IC50 [38]: > 2000 nM
- IC50 [39]: > 2000 nM
- IC50 [40]: > 2000 nM
- IC50 [41]: > 2000 nM
- IC50 [42]: > 2000 nM
- IC50 [43]: > 2000 nM
- IC50 [44]: > 2000 nM
- IC50 [45]: 1210 nM
- IC50 [46]: > 2000 nM
- IC50 [47]: > 2000 nM

Structure (SMILES): CC[C@]1(O)C[C@@H]2CN(CCc3c([nH]c4ccccc34)[C@@](C(=O)OC)(c3cc4c(cc3OC)N(C)[C@H]3[C@@](O)(C(=O)OC)[C@H](OC(C)=O)[C@]5(CC)C=CCN6CC[C@]43[C@@H]65)C2)C1 [VINBLASTINE]
- IC50 [1]: 13.1 nM
- IC50 [2]: 4.69 nM
- IC50 [3]: 6.39 nM
- IC50 [4]: 98.7 nM
- IC50 [5]: 5.53 nM
- IC50 [6]: 5.24 nM
- IC50 [7]: 44 nM
- IC50 [8]: 8.44 nM
- IC50 [9]: 4.67 nM
- IC50 [10]: 29.2 nM
- IC50 [11]: 19.8 nM
- IC50 [12]: 78.6 nM
- IC50 [13]: 11.4 nM
- IC50 [14]: 40 nM
- IC50 [15]: 4.23 nM
- IC50 [16]: 17.3 nM
- IC50 [17]: > 100 nM
- IC50 [18]: 46.4 nM
- IC50 [20]: 20.8 nM
- IC50 [21]: 31.6 nM
- IC50 [22]: 4.47 nM
- IC50 [23]: 53.9 nM
- IC50 [24]: 4.95 nM
- IC50 [25]: 30.7 nM
- IC50 [26]: 1.43 nM
- IC50 [27]: 4.39 nM
- IC50 [28]: 3.44 nM
- IC50 [29]: > 100 nM
- IC50 [30]: > 100 nM
- IC50 [31]: 46.9 nM
- IC50 [32]: 61.5 nM
- IC50 [33]: > 100 nM
- IC50 [34]: 7.47 nM
- IC50 [35]: 19.5 nM
- IC50 [36]: 8.84 nM
- IC50 [37]: 3.67 nM
- IC50 [39]: 3.26 nM
- IC50 [40]: 37.7 nM
- IC50 [41]: 87.3 nM
- IC50 [42]: 5.02 nM
- IC50 [43]: 87 nM
- IC50 [44]: 52.3 nM
- IC50 [45]: 12 nM
- IC50 [46]: 3.55 nM
- IC50 [47]: 74.7 nM

Structure (SMILES): CCCS(=O)(=O)Nc1ccc(F)c(C(=O)c2c[nH]c3ncc(Cl)cc23)c1F [PLX-4720]
- IC50 [1]: 298 nM
- IC50 [2]: > 10000 nM
- IC50 [3]: > 10000 nM
- IC50 [4]: > 10000 nM
- IC50 [5]: > 10000 nM
- IC50 [6]: > 10000 nM
- IC50 [7]: > 10000 nM
- IC50 [8]: > 10000 nM
- IC50 [9]: > 10000 nM
- IC50 [10]: > 10000 nM
- IC50 [11]: > 10000 nM
- IC50 [12]: > 10000 nM
- IC50 [13]: > 10000 nM
- IC50 [14]: > 10000 nM
- IC50 [15]: 6110 nM
- IC50 [16]: > 10000 nM
- IC50 [17]: > 10000 nM
- IC50 [18]: > 10000 nM
- IC50 [19]: > 10000 nM
- IC50 [20]: > 10000 nM
- IC50 [21]: > 10000 nM
- IC50 [22]: > 10000 nM
- IC50 [23]: 412 nM
- IC50 [24]: > 10000 nM
- IC50 [25]: > 10000 nM
- IC50 [26]: > 10000 nM
- IC50 [27]: > 10000 nM
- IC50 [28]: > 10000 nM
- IC50 [29]: > 10000 nM
- IC50 [30]: > 10000 nM
- IC50 [31]: > 10000 nM
- IC50 [32]: > 10000 nM
- IC50 [33]: > 10000 nM
- IC50 [34]: > 10000 nM
- IC50 [35]: > 10000 nM
- IC50 [36]: > 10000 nM
- IC50 [37]: 5190 nM
- IC50 [38]: > 10000 nM
- IC50 [39]: > 10000 nM
- IC50 [40]: > 10000 nM
- IC50 [41]: > 10000 nM
- IC50 [42]: > 10000 nM
- IC50 [43]: > 10000 nM
- IC50 [44]: > 10000 nM
- IC50 [45]: 5980 nM
- IC50 [46]: > 10000 nM
- IC50 [47]: > 10000 nM
